Data taken from ChEMBL document CHEMBL5579818, “Identification of 3-(9H-carbazol-9-yl)-2-(1,3-dioxoisoindolin-2-yl)propanoic acids as promising DNMT1 inhibitors” (Eur J Med Chem, 2024).
pIC50, pKd: −log10 of the molar value.

Legend:
[1] = target: T1, DNA (cytosine-5)-methyltransferase 1 (Homo sapiens, UniProt P26358); assay: Binding affinity to human DNMT1 expressed in Escherichia coli assessed as response unit at 10 uM by SPR analysis
[2] = target: T1, DNA (cytosine-5)-methyltransferase 1; assay: Binding affinity to human DNMT1 expressed in Escherichia coli assessed as equilibrium dissociation constant by SPR analysis
[3] = tested on: A2780; assay: Antiproliferative activity against human A2780 cells incubated for 48 hrs by MTT assay; assay type: functional, cell-based; settings: A2780, 48 h
[4] = tested on: HeLa; assay: Antiproliferative activity against human HeLa cells incubated for 48 hrs by MTT assay; assay type: functional, cell-based
[5] = tested on: K562; assay: Antiproliferative activity against human K562 cells incubated for 48 hrs by MTT assay; assay type: functional, cell-based; settings: K562, 48 h
[6] = tested on: SiHa; assay: Antiproliferative activity against human SiHa cells incubated for 48 hrs by MTT assay; assay type: functional, cell-based
[7] = Inhibition of recombinant human DNA methyltransferase using DNA as substrate incubated for 2 hrs by agarose gel assay
[8] = target: T1, DNA (cytosine-5)-methyltransferase 1; assay: Binding affinity to human DNMT1 expressed in Escherichia coli by SPR analysis
[9] = target: T1, DNA (cytosine-5)-methyltransferase 1; assay: Inhibition of DNMT1 (unknown origin) at 500 uM relative to control
[10] = target: T1, DNA (cytosine-5)-methyltransferase 1; assay: Inhibition of DNMT1 (unknown origin) at 250 uM relative to control

T1 sequence (P26358 whole entry): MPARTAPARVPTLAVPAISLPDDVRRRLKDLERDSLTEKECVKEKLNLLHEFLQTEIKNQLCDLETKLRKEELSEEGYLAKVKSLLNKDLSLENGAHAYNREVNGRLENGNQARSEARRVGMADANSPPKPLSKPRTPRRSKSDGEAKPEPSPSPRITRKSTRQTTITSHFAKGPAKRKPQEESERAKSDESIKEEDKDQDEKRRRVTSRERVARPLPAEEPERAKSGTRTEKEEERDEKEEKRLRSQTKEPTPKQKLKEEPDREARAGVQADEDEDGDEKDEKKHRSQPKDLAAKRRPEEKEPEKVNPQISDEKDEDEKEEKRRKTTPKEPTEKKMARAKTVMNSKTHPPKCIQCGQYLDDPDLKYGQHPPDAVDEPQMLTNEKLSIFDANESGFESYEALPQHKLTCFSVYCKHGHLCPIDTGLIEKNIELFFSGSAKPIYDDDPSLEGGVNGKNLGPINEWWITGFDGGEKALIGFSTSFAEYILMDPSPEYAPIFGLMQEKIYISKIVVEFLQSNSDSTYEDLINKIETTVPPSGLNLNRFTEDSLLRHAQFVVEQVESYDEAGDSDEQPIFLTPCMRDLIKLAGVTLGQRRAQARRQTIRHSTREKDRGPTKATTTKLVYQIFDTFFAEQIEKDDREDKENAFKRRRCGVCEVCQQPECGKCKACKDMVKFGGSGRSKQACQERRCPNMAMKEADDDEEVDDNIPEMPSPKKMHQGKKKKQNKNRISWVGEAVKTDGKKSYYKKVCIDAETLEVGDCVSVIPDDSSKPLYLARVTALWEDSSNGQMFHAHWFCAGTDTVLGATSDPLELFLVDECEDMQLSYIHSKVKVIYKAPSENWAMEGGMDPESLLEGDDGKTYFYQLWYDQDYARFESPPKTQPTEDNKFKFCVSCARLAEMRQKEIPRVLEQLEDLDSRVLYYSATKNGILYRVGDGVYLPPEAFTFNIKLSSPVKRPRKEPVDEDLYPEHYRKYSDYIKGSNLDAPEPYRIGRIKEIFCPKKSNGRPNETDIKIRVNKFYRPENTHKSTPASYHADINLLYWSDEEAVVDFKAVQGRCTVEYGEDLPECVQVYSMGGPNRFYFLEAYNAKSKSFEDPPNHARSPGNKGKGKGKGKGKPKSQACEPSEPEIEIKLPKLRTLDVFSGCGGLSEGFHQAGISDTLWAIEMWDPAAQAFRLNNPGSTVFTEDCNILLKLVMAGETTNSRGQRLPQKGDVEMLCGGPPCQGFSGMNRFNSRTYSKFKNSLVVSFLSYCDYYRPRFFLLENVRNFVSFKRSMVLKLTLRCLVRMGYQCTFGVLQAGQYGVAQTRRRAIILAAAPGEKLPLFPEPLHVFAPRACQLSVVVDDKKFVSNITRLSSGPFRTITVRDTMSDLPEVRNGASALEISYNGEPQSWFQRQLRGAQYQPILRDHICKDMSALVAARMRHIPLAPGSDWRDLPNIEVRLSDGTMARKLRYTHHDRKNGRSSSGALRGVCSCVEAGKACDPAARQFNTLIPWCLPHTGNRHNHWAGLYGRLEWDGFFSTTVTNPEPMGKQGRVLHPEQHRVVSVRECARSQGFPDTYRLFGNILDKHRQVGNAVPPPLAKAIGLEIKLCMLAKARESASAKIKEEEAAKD

Activity [1]: 2.2 RU
pKd [2]: 4.02
pIC50 [3]: < 3.70
pIC50 [4]: < 3.70
pIC50 [5]: < 3.70
pIC50 [7]: 6.94
pKd [8]: 4.02
inhibition [9]: < 5%
inhibition [10]: < 5%
SMILES: O=C(O)[C@H](Cc1c[nH]c2ccccc12)N1C(=O)c2ccccc2C1=O
pIC50 [6]: < 3.70
